Laboratory results: patent US20230014430A1, “Methods and Compositions for Generating Functionally Mature Beta Cells and Uses Thereof” (Washington University, priority 2019, published 2023)

Assays:
Assay type in all cases: cell-based, human
[1] = test system: SIX2 gene expression; test: SC-β cells treated with a library of compounds to identify SIX2 regulators; settings: FIG. 11
Description: FIG. 11. Regulators of SIX2. SC-β cells were treated with a library of compound to identify SIX2 regulators. […] (B) Negative Regulators of SIX2 gene expression. (C) Flow cytometry of SC-β cells treated with SIX2 regulators.
Here, regulators of SIX2 gene expression were discovered (see e.g., FIG. 11). It was discovered that (1) regulators of SIX2 affect the % of SC-β cells generated (see e.g., FIG. 12); (2) SIX2 regulators influence SC-β cell function (see e.g., FIG. 13); (3) SIX2 is expressed by only a fraction of C-peptide positive cells (SC-β cells) (see e.g., FIG. 12A, FIG. 2B); and (4) SIX2+ cells secrete insulin in response to glucose when single cell dispersed and plated down (see e.g., FIG. 14).

[2] = test system: SC-β cells; test: Static glucose-stimulated insulin secretion of stage 6 cells; settings: HUES8 hESC and 1013-4FA hiPSC lines, vs sh-ctrl
Description: (§1) Gene KD was performed similar to as previously described (Velazco-Cruz et al., 2019). pLKO.1 TRC plasmids containing shRNA sequences targeting GFP (sh-ctrl) and human SIX2 (sh-SIX2-1 and sh-SIX2-2) were received from the RNAi Core at the Washington University. sh-ctrl, […] (SEQ ID NO: 35); sh-SIX2-1, […] (SEQ ID NO: 36); sh-SIX2-2, […] (SEQ ID NO: 37). Viral particles were generated using Lenti-X 293T cells (Takara; 632180) cultured in DMEM (MilliporeSigma; D6429) with 10% heat inactivated fetal bovine serum (MilliporeSigma; F4135). Confluent Lenti-X 293T cells were transfected with […] of shRNA plasmid, […] of psPAX2 (Addgene; 12260), and 1.5 μg pMD2.G (Addgene; 12259) packaging plasmids in 600 μL of Opti-MEM (Life Technologies; 31985-070) and 48 μL of Polyethylenimine ‘Max’ MW 40,000 Da (Polysciences; 24765-2). 16 hours post transfection media was switched. Viral containing supernatant was collected at 96 hours post transfection and concentrated using Lenti-X concentrator (Takara; 631232). Collected lentivirus was tittered using Lenti-X qRT-PCR Titration Kit (Takara; 631235). […]
Measurements were performed as previously described (Velazco-Cruz et al., 2019). […] Insulin was quantified with a human insulin ELISA (ALPCO; 80-INSHU-E10.1). Cell quantification was performed by dispersing with trypLE and counting with the Vi-Cell XR.

[3] = test system: SC-β cells; test: Dynamic glucose-stimulated insulin secretion of stage 6 cells (perifusion); settings: HUES8 hESC and 1013-4FA hiPSC lines, vs sh-ctrl
Description: as §1
Measurements were performed as previously described (Velazco-Cruz et al., 2019). […] Insulin was quantified with a human insulin ELISA (ALPCO; 80-INSHU-E10.1). DNA quantification was performed by lysing the cells and measuring with the Quant-iT Picogreen dsDNA assay kit (Invitrogen; P7589). […]

Molecule	regulation of SIX2 expression in SC-β cells [1]	static glucose-stimulated insulin secretion [2]	dynamic glucose-stimulated insulin secretion [3]
Nc1nccc2c1ncn2[C@@H]1C=C(CO)[C@@H](O)[C@H]1O [3-Deazaneplanocin A]	positive regulator	–	–
Nc1ncn([C@@H]2O[C@H](CO)[C@@H](O)[C@H]2O)c(=O)n1 [5-Azacytidine]	positive regulator	–	–
Cc1c[nH]c(-c2cnc(NCCNc3ccc(C#N)cn3)nc2-c2ccc(Cl)cc2Cl)n1 [CHIR99021]	positive regulator	–	–
Cc1ccc(-n2nc(C(C)(C)C)cc2NC(=O)Nc2ccc(OCCN3CCOCC3)c3ccccc23)cc1 [doramapimod]	positive regulators	–	–
AZD4547	positive regulators	–	–
TGFβ1: TGFβ agonist (growth factor)	positive regulators	–	–
sh-SIX2-1: lentiviral pLKO.1 TRC shRNA targeting human SIX2, CAACGAGAACTCCAATTCTAA (SEQ ID NO: 36)	–	significant reductions	significant reductions
sh-SIX2-2: lentiviral pLKO.1 TRC shRNA targeting human SIX2, GAGCACCTTCACAAGAATGAA (SEQ ID NO: 37)	–	significant reductions	significant reductions
TGFβ2: TGFβ agonist (growth factor) (protein, UniProt P61812 303-414, looked up) Transforming growth factor …: ALDAAYCFRNVQDNCCLRPLYIDFKRDLGWKWIHEPKGYNANFCAGACPYLWSSDTQHSRVLSLYNTINPEASASPCCVSQDLEPLTILYYIGKTPKIEQLSNMIVKSCKCS	positive regulators	–	–
